What is called half-life is how long it takes for the measured level to halve. Read a high half-life as slow decline.

Like-named read-outs stand apart in the source and are kept apart here. A value given as a limit tells only on which side of the number the result lay.

These results are taken from PMC9628989 (Antiviral Research, 2007).

The conditions of data set [1]: in vivo; cited from earlier work.
The conditions of data set [2]: CD-1, mouse, s9, 0 h, pH 7.4.
For data set [3] the following is noted: cynomolgus monkey, s9, 0 h, pH 7.4.
For data set [4] the following is noted: human, s9, 0 h, pH 7.4.
Data set [5] can be described thus: in vitro. The conditions noted are these: CD-1, mouse, s9, pH 7.4, Half-life.
A short description of data set [6]: in vitro. The note with it: cynomolgus monkey, s9, pH 7.4, Half-life.
Data set [7] can be described thus: in vitro. The note with it: both, CD-1, mouse, hepatocytes.
Data set [8] is described as follows: in vitro. The note with it: both, human, hepatocytes.
For data set [9] the following is noted: mouse, in vivo, po; cited from earlier work.
For data set [10] the following is noted: in vivo; cited from earlier work. The source holds these as a separate data set.

`Nc1ccn(C[C@@H](CO)OCP(=O)(O)O)c(=O)n1` [CDV, [S]-1-[3-hydroxy-2-phosphonylmethoxypropyl]cytosine]: the oral bioavailability result in [1] was “poor oral bioavailability”.

As to `CCCCCCCCCCCCCCCCOCCCOP(=O)(O)CO[C@H](CO)Cn1ccc(N)nc1=O` [CMX001, hexadecyloxypropyl ester of CDV], the “Percentage of CMX001 remaining at incubation time point 0 min” value in [2], in data set [3] and in data set [4] was 100% in each case. In addition, the half-life in data set [5] is above 1.67 h; in data set [6] it was 8 min; in [7], 3.55 h; in data set [8], 3.8 h. Besides, in data set [9], the “orally administered drug accounted for in plasma” value is reported as “approximately 88%”. The nephrotoxicity result in data set [10] is “not been shown to cause nephrotoxicity”.
